{"source": "patent US5753631A", "about": "“Intercellular adhesion mediators” (Cytel Corporation, priority 1995, dated 1998)", "key": {"[1]": {"tested_on": "myocardial ischemia-reperfusion injury in the cat heart", "experiment": "Myocardial ischemia-reperfusion injury in cats: ischemic myocardium", "assay_type": "in vivo, cat (male)", "details": "10 mg/Kg i.v.; control 35±4%, P<0.01", "method": "(§1) A model of myocardial ischemia and reperfusion injury in cats was performed according to the methods of Tsao et al (Circulation 82:1402-1412 (1990), which is incorporated herein by reference. Briefly, male cats (2.5-3.5 Kg) were anesthetized with sodium pentobarbital (30 mg/Kg, i.v.). An intratracheal tube was inserted through a mid-line incision and all cats were given intermittent positive pressure ventilation by a Harvard small animal respirator. A polyethylene catheter was inserted into the external jugular vein and the right […] was cannulated and connected to a Statham P23AC pressure transducer for the measurement of arterial blood pressure. A midline thoracotomy was performed, the pericardium was opened and the heart was exposed. A 2-0 silk suture was carefully placed around the left anterior descending artery (LAD) 10-12 mm from its origin. After a 30 minute period of stabilization myocardial ischemia was initiated by complete ligation of the LAD for 1.5 hours of ischemia followed by 4.5 hours of reperfusion. Z (10 mg/Kg in PBS) or PBS alone were administered intravenously 10 minutes prior to the initiation of reperfusion.\nArea at risk was determined by reocclusion of the LAD at the end of the reperfusion period followed by the injection of Evans blue dye into the left atrium. The area of risk was, therefore, determined by negative staining."}, "coronary artery rings": {"tested_on": "coronary artery rings", "experiment": "Acetylcholine-induced endothelial dependent relaxation of coronary artery rings from ischemic-reperfused cats", "assay_type": "in vivo, cat", "details": "10 mg/Kg i.v.; control 22±6%, P<0.01", "method": "as §1, with “After a 30 minute period of stabilization myocardial ischemia was initiated by complete ligation of the LAD for 1.5 hours of ischemia followed by 4.5 hours of reperfusion. Z (10 mg/Kg in PBS) or PBS alone were administered intravenously 10 minutes prior to the initiation of reperfusion.” left out\n(§2) Endothelial dependent relaxation of coronary artery rings was determined by measuring the acetylcholine-induced relaxation of rings previously contracted with the thromboxane A2 mimetic U46619. Data are expressed as percentage relaxation. Creatinine kinase enzyme levels were measured immunochemically in plasma samples collected at the end of the reperfusion period. The adherence of PMNs to sections of coronary artery was measured in vitro using fluorescene labelled autologous cat neutrophils."}, "creatinine kinase": {"tested_on": "creatinine kinase", "experiment": "Plasma creatinine kinase after myocardial ischemia-reperfusion in cats", "assay_type": "in vivo, cat", "details": "10 mg/Kg i.v.; control 25±3, P<0.01", "method": "as §1, with “After a 30 minute period of stabilization myocardial ischemia was initiated by complete ligation of the LAD for 1.5 hours of ischemia followed by 4.5 hours of reperfusion. Z (10 mg/Kg in PBS) or PBS alone were administered intravenously 10 minutes prior to the initiation of reperfusion.” left out\nas §2"}, "[2]": {"tested_on": "dermal and pulmonary models of inflammation", "experiment": "Dermal and pulmonary models of inflammation: leukocyte accumulation", "assay_type": "in vivo"}}}
{"molecule": "CCO[C@@H]1O[C@H](CO)[C@H](O)[C@H](O[C@@H]2O[C@H](CO)[C@@H](O[C@@H]3O[C@H](CO)[C@H](O)[C@H](O[C@]4(C(=O)O)C[C@H](O)[C@@H](NC(C)=O)[C@H]([C@H](O)[C@H](O)CO)O4)[C@H]3O)[C@H](O[C@@H]3O[C@@H](C)[C@@H](O)[C@@H](O)[C@@H]3O)[C@H]2NC(C)=O)[C@H]1O", "note": "[Z, Ethyl(sodium(5-acetamido-3,5-dideoxy-α-D-glycero-D-galacto-2-nonulopyanosylonate))-(2-3)-O-(β-D-galactopyranosyl)-(1-4)-O-((α-L-fucopyranosyl)-(1-3))-O-(2-acetamido-2-deoxy-β-D-glucopyranosyl)-(1-3)-O-β-D-galactopyranoside]", "values": [{"measurement": "extent of myocardial ischemia, of the area at risk", "setting": "[1]", "result": "6±1", "unit": "%"}, {"measurement": "endothelial dependent relaxation to acetylcholine", "setting": "coronary artery rings", "result": "73±7", "unit": "%"}, {"measurement": "plasma concentration of creatinine kinase", "setting": "creatinine kinase", "result": "7±1", "unit": "IU/mg protein"}, {"measurement": "inhibition of leukocyte accumulation", "setting": "[2]", "result": "do not provide evidence of the ability of Z to inhibit leukocyte accumulation"}]}
